Test results as given in publication PMC9587990, “Molecular basis for isoform-selective inhibition of presenilin-1 by MRK-560” (Nature Communications, 2022).
Values joined by “and” are separate entries in the source; they are usually repeats but may differ in a detail not shown here. Identical values can stand only once. “Also recorded” adds a separate entry of the source. Like-named read-outs stand apart in the source and are kept apart here.

Tests used:
[1] = test system: PS1 and PS2 with swapped loop-3; test: in vitro cleavage assay, AICD production by western blot; type: biochemical, human
Description: (§1) Fig. 4 Thr281 and Leu282 of PS1 determine the isoform selectivity of MRK-560. a–c Individual and double residue swapping of Thr281 and Leu282 in PS1 with the corresponding Pro287 and Ile288 in PS2 alter their respective sensitives to MRK-560 accordingly. IC50 values for MRK-560 inhibition of the indicated PS1 (a) and PS2 (b) mutants were measured using the AlphaLISA assay that detects Aβ40 production. Please refer to Methods for experimental details. Data are presented as mean values ± SD. c Production of AICD by residue-swapped PS1 and PS2 mutants. The amount of AICD generated by the indicated variants in the presence of serial diluted MRK-560 is consistent with the corresponding IC50 shown in (a, b). […] The production of AICD was quantified by ImageJ. Red asterisks indicate the first concentration where the normalized production of AICD was reduced to less than 20%. Source data are provided as a Source Data file. […]
(§2) All proteins used for the activity assay were sub-cloned, expressed and purified as described. Protein concentration was determined using the Bradford method. […] The cleaved products of these substrates were detected using a monoclonal antibody (1:1000 dilution, CW0299, CWBio) against the C-terminal Myc tag. Aβ40 production was detected using the AlphaLISA assay (PerkinElmer) as described. The IC50 values and the inhibition curves were calculated using Prism 8.0.

[2] = target: T1, PS2-complex (WT PS2-containing γ-secretase) (Homo sapiens, UniProt P49810); test: in vitro cleavage assay, Aβ40 production by AlphaLISA; type: biochemical; conditions: for remaining activity at 0.002 µM / remaining activity at 0.01 µM / remaining activity at 0.04 µM / remaining activity at 0.2 µM / remaining activity at 1 µM / remaining activity at 10 µM: 4 h; for remaining activity at 0.002 µM / remaining activity at 0.01 µM / remaining activity at 0.04 µM / remaining activity at 0.2 µM / remaining activity at 1 µM / remaining activity at 10 µM / Caculated Aβ40 production / raw data from α-Lisa reading: PS2 WT
T1 construct: made in house; host or cells: mammalian cells (HEK293F is stated for the cryo-EM samples)
Description: (§3) The PS1- or PS2 complexes were expressed and purified as described. To validate the inhibitory effect of MRK-560 (Fig. 1a), we reconstituted an in vitro cleavage assay using the purified PS1- or PS2 complexes. Production of Aβ40, which is the major cleavage product among the varying lengths of Aβs, and AICD, whose cleavage reflects the endopeptidase activity of γ-secretase, are measured with AlphaLISA and western blots, respectively. All proteins used for the activity assay were sub-cloned, expressed and purified as described. Protein concentration was determined using the Bradford method. […] The cleavage reaction was conducted at 37 °C for 4 h. The cleaved products of these substrates were detected using a monoclonal antibody (1:1000 dilution, CW0299, CWBio) against the C-terminal Myc tag. Aβ40 production was detected using the AlphaLISA assay (PerkinElmer) as described. The IC50 values and the inhibition curves were calculated using Prism 8.0. Statistical analysis of Aβ40 was performed using Prism 8 (GraphPad Software, San Diego, CA, USA). IC50 were determined by a four-parameter logistic regression. The statistical details can be found in Figs. 1, 4 and legends. Data are expressed as mean ± SD.

[3] = target: T2, PS1-complex (WT PS1-containing γ-secretase) (Homo sapiens, UniProt P49768); test: as above; type: biochemical; conditions: for remaining activity at 0.002 µM / remaining activity at 0.01 µM / remaining activity at 0.04 µM / remaining activity at 0.2 µM / remaining activity at 1 µM / remaining activity at 10 µM: 4 h
T2 construct: made in house; host or cells: mammalian cells (HEK293F is stated for the cryo-EM samples)
Description: as §3

PS2 variants = test: in vitro cleavage assay, AICD production by western blot; type: biochemical, human; conditions: PS2 variants versus WT PS2
Description: as §1, §2

[4] = test system: Aβ production in the brain; parameters: method as in PMID 17099072, PMID 16443723; conditions: cited from earlier work
PS1-complex over PS2 = conditions: cited from earlier work
PS1 variant L282I = target: T3, PS1 variant L282I (Homo sapiens, UniProt P49768, L282I); test: in vitro cleavage assay, AICD production by western blot; type: biochemical; conditions: 1 μM MRK-560, PS1 L282I
T3 construct: made in house
Description: (§4) Fig. 4 Thr281 and Leu282 of PS1 determine the isoform selectivity of MRK-560. a–c Individual and double residue swapping of Thr281 and Leu282 in PS1 with the corresponding Pro287 and Ile288 in PS2 alter their respective sensitives to MRK-560 accordingly. IC50 values for MRK-560 inhibition of the indicated PS1 (a) and PS2 (b) mutants were measured using the AlphaLISA assay that detects Aβ40 production. Please refer to Methods for experimental details. Data are presented as mean values ± SD. c Production of AICD by residue-swapped PS1 and PS2 mutants. The amount of AICD generated by the indicated variants in the presence of serial diluted MRK-560 is consistent with the corresponding IC50 shown in (a, b). […] The production of AICD was quantified by ImageJ. Red asterisks indicate the first concentration where the normalized production of AICD was reduced to less than 20%. Source data are provided as a Source Data file. Each cleavage assay was repeated three times. Error bars: SD.
(§5) We also examined the inhibitory effect of MRK-560 on the production of AICD by the PS1/PS2 variants (Fig. 4c).
(§6) All proteins used for the activity assay were sub-cloned, expressed and purified as described. Protein concentration was determined using the Bradford method. […] The cleavage reaction was conducted at 37 °C for 4 h. The cleaved products of these substrates were detected using a monoclonal antibody (1:1000 dilution, CW0299, CWBio) against the C-terminal Myc tag. Aβ40 production was detected using the AlphaLISA assay (PerkinElmer) as described. The IC50 values and the inhibition curves were calculated using Prism 8.0.

PS1 TL281-282PI = target: T4, PS1 TL281-282PI (Homo sapiens, UniProt P49768, L282I/T281P); test: as above; type: biochemical; conditions: 10 μM MRK-560, PS1 TL281-282PI
T4 construct: made in house
Description: as §4, §5, §6

PS1 variant T281P = target: T5, PS1 variant T281P (Homo sapiens, UniProt P49768, T281P); test: as above; type: biochemical; conditions: 1 μM MRK-560, PS1 T281P
T5 construct: made in house
Description: as §4, §5, §6

PS2(PI287-288TL) = target: T6, PS2(PI287-288TL) (Homo sapiens, UniProt P49810, I288L/P287T); test: as above; type: biochemical; conditions: 200 nM MRK-560, PS2(PI287-288TL)
T6 construct: made in house
Description: as §4, §5, §6

[5] = PS1 WT, MRK-560 2 nM, replicates
[6] = PS1 WT, MRK-560 10 nM, replicates
[7] = PS1 WT, MRK-560 40 nM, replicates
[8] = PS1 WT, MRK-560 200 nM, replicates
[9] = PS1 WT, MRK-560 1 μM, replicates
[10] = PS1 WT, MRK-560 10 μM, replicates

remaining activity at 0.002 µM ([2]; MRK-560 2 nM, mean of 3 replicates, read-out: Normalized production (control=1), Mean): 98.5%
remaining activity at 0.002 µM ([2]; MRK-560 2 nM, replicates, read-out: Normalized production (control=1)): 96.8%
remaining activity at 0.01 µM ([2]; MRK-560 10 nM, mean of 3 replicates, read-out: Normalized production (control=1), Mean): 93.7%
remaining activity at 0.01 µM ([2]; MRK-560 10 nM, replicates, read-out: Normalized production (control=1)): 96.7%
remaining activity at 0.04 µM ([2]; MRK-560 40 nM, mean of 3 replicates, read-out: Normalized production (control=1), Mean): 94.4%
remaining activity at 0.04 µM ([2]; MRK-560 40 nM, replicates, read-out: Normalized production (control=1)): 92.8%
remaining activity at 0.2 µM ([2]; MRK-560 200 nM, mean of 3 replicates, read-out: Normalized production (control=1), Mean): 44.1%
remaining activity at 0.2 µM ([2]; MRK-560 200 nM, replicates, read-out: Normalized production (control=1)): 43.5%
remaining activity at 1 µM ([2]; MRK-560 1 μM, mean of 3 replicates, read-out: Normalized production (control=1), Mean): 9.52%
remaining activity at 1 µM ([2]; MRK-560 1 μM, replicates, read-out: Normalized production (control=1)): 8.72%
remaining activity at 10 µM ([2]; MRK-560 10 μM, mean of 3 replicates, read-out: Normalized production (control=1), Mean): 6.39%
remaining activity at 10 µM ([2]; MRK-560 10 μM, replicates, read-out: Normalized production (control=1)): 6.67%
IC50 ([2]; PS2-complex WT, mean ± SD, n=3): 173 ± 24 nM
Caculated Aβ40 production ([2]; MRK-560 2 nM, replicates): 178.2729 and 172.6848 and 175.9467
raw data from α-Lisa reading ([2]; MRK-560 2 nM, replicates): 27903 and 28403 and 28759
Caculated Aβ40 production ([2]; MRK-560 10 nM, replicates): 177.3643 and 172.5675 and 151.3305
raw data from α-Lisa reading ([2]; MRK-560 10 nM, replicates): 27885 and 24607 and 28620
Caculated Aβ40 production ([2]; MRK-560 40 nM, replicates): 171.4208 and 165.5620 and 168.4662
raw data from α-Lisa reading ([2]; MRK-560 40 nM, replicates): 26808 and 27255 and 27709
Caculated Aβ40 production ([2]; MRK-560 200 nM, replicates): 82.1115 and 77.5422 and 76.1780
raw data from α-Lisa reading ([2]; MRK-560 200 nM, replicates): 12906 and 12685 and 13645
Caculated Aβ40 production ([2]; MRK-560 1 μM, replicates): 17.8069 and 15.5539 and 17.5803
raw data from α-Lisa reading ([2]; MRK-560 1 μM, replicates): 2685 and 3025 and 3063
Caculated Aβ40 production ([2]; MRK-560 10 μM, replicates): 12.9409 and 11.9064 and 9.3762
raw data from α-Lisa reading ([2]; MRK-560 10 μM, replicates): 2072 and 1646 and 2246
remaining activity at 0.002 µM ([3]; PS1 WT, MRK-560 2 nM, mean of 3 replicates, read-out: Normalized production (control=1), Mean): 101%
remaining activity at 0.002 µM ([3]; PS1 WT, MRK-560 2 nM, replicates, read-out: Normalized production (control=1)): 102%
remaining activity at 0.01 µM ([3]; PS1 WT, MRK-560 10 nM, mean of 3 replicates, read-out: Normalized production (control=1), Mean): 92.4%
remaining activity at 0.01 µM ([3]; PS1 WT, MRK-560 10 nM, replicates, read-out: Normalized production (control=1)): 90.9%
remaining activity at 0.04 µM ([3]; PS1 WT, MRK-560 40 nM, mean of 3 replicates, read-out: Normalized production (control=1), Mean): 43.2%
remaining activity at 0.04 µM ([3]; PS1 WT, MRK-560 40 nM, replicates, read-out: Normalized production (control=1)): 43.4%
remaining activity at 0.2 µM ([3]; PS1 WT, MRK-560 200 nM, mean of 3 replicates, read-out: Normalized production (control=1), Mean): 8.2%
remaining activity at 0.2 µM ([3]; PS1 WT, MRK-560 200 nM, replicates, read-out: Normalized production (control=1)): 8.25%
remaining activity at 1 µM ([3]; PS1 WT, MRK-560 1 μM, mean of 3 replicates, read-out: Normalized production (control=1), Mean): 0.63%
remaining activity at 1 µM ([3]; PS1 WT, MRK-560 1 μM, replicates, read-out: Normalized production (control=1)): 0.63%
remaining activity at 10 µM ([3]; PS1 WT, MRK-560 10 μM, mean of 3 replicates, read-out: Normalized production (control=1), Mean): 0.52%
remaining activity at 10 µM ([3]; PS1 WT, MRK-560 10 μM, replicates, read-out: Normalized production (control=1)): 0.46%
IC50 ([3]; PS1-complex WT, mean ± SD, n=3): 33 ± 2 nM
Caculated Aβ40 production [3, 5]: 346.0052 and 350.2238 and 339.9166
raw data from α-Lisa reading [3, 5]: 53851 and 52412 and 53263
Caculated Aβ40 production [3, 6]: 325.7701 and 311.5896 and 312.3355
raw data from α-Lisa reading [3, 6]: 48416 and 48522 and 50424
Caculated Aβ40 production [3, 7]: 146.9566 and 148.7756 and 148.6084
raw data from α-Lisa reading [3, 7]: 24210 and 24184 and 23927
Caculated Aβ40 production [3, 8]: 26.7052 and 28.2767 and 29.2852
raw data from α-Lisa reading [3, 8]: 4813 and 4981 and 4551
Caculated Aβ40 production [3, 9]: 2.1627 and 2.1745 and 2.1272
raw data from α-Lisa reading [3, 9]: 430 and 422 and 428
Caculated Aβ40 production [3, 10]: 1.8967 and 1.5777 and 1.8849
Normalized production (control=1) [3, 10]: 0.0055
raw data from α-Lisa reading [3, 10]: 329 and 381 and 383
Generation of AICD (PS1 variant L282I): still detected
Generation of AICD (PS1 TL281-282PI): could not be completely inhibited
Generation of AICD (PS1 variant T281P): still detected
Generation of AICD (PS2(PI287-288TL)): completely inhibited
Compound: O=S(=O)(NC1CCC(c2cc(F)ccc2F)(S(=O)(=O)c2ccc(Cl)cc2)CC1)C(F)(F)F (stereo not drawn) [MRK-560, N-[cis-4-[(4-chlorophenyl)sulfonyl]-4-(2,5-difluorophenyl)cyclohexyl]-1,1,1-trifluoromethanesulfonamide]
effect of swapping loop-3 between PS1 and PS2 on sensitivity to MRK-560 [1]: little influence on inhibition selectivity; also recorded: no detectable effect on the sensitivity
sensitivity of AICD production to MRK-560 (PS2 variants): increased sensitivity
Aβ production in the brain [4]: reduced
higher suppression of the PS1-complex over PS2 (PS1-complex over PS2): 37 folds
